The test system of one data set is MCF7. Kind of data set: Antiproliferative activity against human MCF7 cells assessed as inhibition of cell growth incubated for 48 hrs by alamarblue staining based assay. The note with it: MCF7, 48 h. It counts as functional. In general terms: The colour change of resazurin is a common sign of viable cells or microbes.
The test system of a further data set is COLO 205. The experiment in a line: Antiproliferative activity against human COLO 205 cells assessed as inhibition of cell growth incubated for 48 hrs by alamarblue staining based assay. Type of data set: functional. Particulars: COLO 205, 48 h.
Data set [1] concerns A549. The experiment in a line: Antiproliferative activity against human A549 cells assessed as inhibition of cell growth incubated for 48 hrs by alamarblue staining based assay. It counts as functional. The note with it: A549, 48 h.
The target of another data set is Pyruvate kinase PKM (Homo sapiens, UniProt P14618). The experiment in a line: Inhibition of recombinant PKM2 (unknown origin).
Data set [2] deals with cAMP and cAMP-inhibited cGMP 3',5'-cyclic phosphodiesterase 10A (Homo sapiens, UniProt Q9Y233). The experiment in a line: Inhibition of full length human PDE10A incubated for 1 hr by topcount Scintillation plate reader analysis.
The test system of data set [3] is Candida albicans. The experiment in a line: Antifungal activity against Candida albicans ATCC 10231 assessed as reduction in fungal growth incubated for 24 hrs by CLSI based assay. It counts as functional.
For another data set, the system named is Candida dubliniensis. The experiment in a line: Antifungal activity against Candida dubliniensis CD36 assessed as reduction in fungal growth incubated for 24 hrs by CLSI based assay. Type of data set: functional.
The subject of data set [4] is Meyerozyma guilliermondii. Kind of data set: Antifungal activity against Meyerozyma guilliermondii assessed as reduction in fungal growth incubated for 24 hrs by CLSI based assay. It counts as functional.
Data set [5] deals with Kluyveromyces marxianus. The experiment in a line: Antifungal activity against Candida kefyr assessed as reduction in fungal growth incubated for 24 hrs by CLSI based assay. Type of data set: functional.
Another data set has as its system Nakaseomyces glabratus. The experiment in a line: Antifungal activity against Candida glabrata CBS138 assessed as reduction in fungal growth incubated for 24 hrs by CLSI based assay. Type of data set: functional.
In another data set the test system is Pichia kudriavzevii. Kind of data set: Antifungal activity against Candida krusei ATCC 6358 assessed as reduction in fungal growth incubated for 24 hrs by CLSI based assay. It counts as functional.
The subject of another data set is Candida tropicalis. The experiment in a line: Antifungal activity against Candida tropicalis MYA-3404 assessed as reduction in fungal growth incubated for 24 hrs by CLSI based assay. It counts as functional.
For data set [6], the system named is A549. Kind of data set: Antiproliferative activity against human A549 cells assessed as inhibition of cell growth by MTT assay. Type of data set: functional, cell-based. (In general: Formazan colour is commonly taken as a measure of viable cells.)
In a further data set the target is Albumin (Homo sapiens, UniProt P02768). The experiment in a line: Inhibition of Albumin (unknown origin) denaturation at 100 uM relative to control.
The subject of a further data set is BK polyomavirus. Kind of data set: Antiviral activity against BK polyomavirus MM infected in human HFF cells assessed as reduction in viral growth incubated for 7 days. Type of data set: functional, organism-based. Particulars: Betapolyomavirus hominis, 168 h.
Data set [7] is described as follows: Cytotoxicity against human HFF cells assessed as cell growth inhibition by celltiter-glo assay. It counts as toxicity, cell-based.
The test system of the next data set is Aorta. The experiment in a line: Vasorelaxant activity in rabbit aorta assessed as inhibition of phenylephrine-induced contraction. It counts as functional, tissue-based. Particulars: Oryctolagus cuniculus.
Another data set relates to CCRF-CEM. The experiment in a line: Antiproliferative activity against human CCRF-CEM cells assessed as inhibition of cell growth incubated for 72 hrs by MTT assay. It counts as functional, cell-based.
In a further data set the test system is K562. The experiment in a line: Antiproliferative activity against human K562 cells assessed as inhibition of cell growth incubated for 72 hrs by MTT assay. Particulars: K562, 72 h. It counts as functional, cell-based.
Data set [8] has as its system A549. Kind of data set: Antiproliferative activity against human A549 cells assessed as inhibition of cell growth incubated for 72 hrs by MTT assay. It counts as functional, cell-based. Particulars: A549, 72 h.
A further data set relates to CEM-DNR. Kind of data set: Antiproliferative activity against human CEM-DNR cells assessed as inhibition of cell growth incubated for 72 hrs by MTT assay. Type of data set: functional, cell-based.
The subject of data set [9] is Candida albicans. The experiment in a line: Antifungal activity against Candida albicans NCPF 400034 assessed as inhibition of fungal growth incubated for 48 hrs. Type of data set: functional.
The test system of data set [10] is Kluyveromyces marxianus. The experiment in a line: Antifungal activity against Candida keyfer […] 410004 assessed as inhibition of fungal growth incubated for 48 hrs. Type of data set: functional.
The test system of the next data set is Cryptococcus neoformans. Kind of data set: Antifungal activity against Cryptococcus neoformans NCPF 250316 assessed as inhibition of fungal growth incubated for 48 hrs. It counts as functional.
The test system of another data set is Aspergillus niger. The experiment in a line: Antifungal activity against Aspergillus niger assessed as inhibition of fungal growth incubated for 48 hrs. Type of data set: functional.
In the next data set the test system is Neurospora crassa. The experiment in a line: Antifungal activity against Neurospora crassa assessed as inhibition of fungal growth incubated for 48 hrs. Type of data set: functional.

The values below come from ChEMBL document CHEMBL5532697, “Imidazopyrimidine: from a relatively exotic scaffold to an evolving structural motif in drug discovery” (RSC Med Chem, 2024).

In brackets after ≈: the same amount, converted by molar mass.

Pyruvate kinase PKM, sequence (P14618 whole entry): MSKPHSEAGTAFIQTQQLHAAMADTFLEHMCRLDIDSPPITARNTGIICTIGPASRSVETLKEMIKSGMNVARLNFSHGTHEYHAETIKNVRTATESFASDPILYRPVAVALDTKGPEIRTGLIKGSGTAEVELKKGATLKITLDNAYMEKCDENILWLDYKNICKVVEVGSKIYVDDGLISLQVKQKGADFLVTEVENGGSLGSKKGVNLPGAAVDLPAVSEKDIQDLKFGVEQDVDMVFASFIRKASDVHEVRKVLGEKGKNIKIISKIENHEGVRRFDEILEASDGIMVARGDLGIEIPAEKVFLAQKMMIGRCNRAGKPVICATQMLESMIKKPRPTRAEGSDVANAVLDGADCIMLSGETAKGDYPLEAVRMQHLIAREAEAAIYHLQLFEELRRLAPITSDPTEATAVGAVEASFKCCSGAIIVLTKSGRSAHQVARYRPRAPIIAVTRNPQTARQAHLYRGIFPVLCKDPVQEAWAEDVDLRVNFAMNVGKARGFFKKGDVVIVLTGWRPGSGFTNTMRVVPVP
cAMP and cAMP-inhibited cGMP 3',5'-cyclic phosphodiesterase 10A, sequence (Q9Y233 whole entry): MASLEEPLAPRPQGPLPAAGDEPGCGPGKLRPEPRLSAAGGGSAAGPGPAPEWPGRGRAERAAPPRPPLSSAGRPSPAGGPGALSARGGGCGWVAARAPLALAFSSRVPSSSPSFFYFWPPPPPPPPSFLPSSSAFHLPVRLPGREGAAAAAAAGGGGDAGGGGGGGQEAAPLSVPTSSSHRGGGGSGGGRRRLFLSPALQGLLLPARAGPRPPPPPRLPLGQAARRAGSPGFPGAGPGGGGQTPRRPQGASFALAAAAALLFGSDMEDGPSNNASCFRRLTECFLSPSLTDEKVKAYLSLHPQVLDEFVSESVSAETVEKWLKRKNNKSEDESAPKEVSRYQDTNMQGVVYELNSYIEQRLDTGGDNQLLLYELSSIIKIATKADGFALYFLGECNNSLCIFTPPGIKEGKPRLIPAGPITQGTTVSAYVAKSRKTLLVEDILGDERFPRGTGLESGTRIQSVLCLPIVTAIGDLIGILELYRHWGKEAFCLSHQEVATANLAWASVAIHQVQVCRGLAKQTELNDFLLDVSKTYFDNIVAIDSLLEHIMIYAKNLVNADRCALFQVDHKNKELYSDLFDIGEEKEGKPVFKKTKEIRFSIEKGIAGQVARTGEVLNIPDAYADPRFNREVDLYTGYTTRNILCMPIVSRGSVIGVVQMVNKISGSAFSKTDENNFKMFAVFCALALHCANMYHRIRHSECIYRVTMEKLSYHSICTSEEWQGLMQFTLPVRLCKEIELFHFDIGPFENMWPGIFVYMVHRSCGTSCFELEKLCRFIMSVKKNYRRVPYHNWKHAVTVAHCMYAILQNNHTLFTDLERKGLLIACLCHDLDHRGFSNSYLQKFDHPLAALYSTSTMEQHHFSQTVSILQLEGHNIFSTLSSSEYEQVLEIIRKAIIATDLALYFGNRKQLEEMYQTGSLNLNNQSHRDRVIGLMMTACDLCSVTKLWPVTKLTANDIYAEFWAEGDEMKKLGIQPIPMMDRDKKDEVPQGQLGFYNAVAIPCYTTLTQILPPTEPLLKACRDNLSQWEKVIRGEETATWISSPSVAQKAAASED
Albumin, sequence (P02768 whole entry): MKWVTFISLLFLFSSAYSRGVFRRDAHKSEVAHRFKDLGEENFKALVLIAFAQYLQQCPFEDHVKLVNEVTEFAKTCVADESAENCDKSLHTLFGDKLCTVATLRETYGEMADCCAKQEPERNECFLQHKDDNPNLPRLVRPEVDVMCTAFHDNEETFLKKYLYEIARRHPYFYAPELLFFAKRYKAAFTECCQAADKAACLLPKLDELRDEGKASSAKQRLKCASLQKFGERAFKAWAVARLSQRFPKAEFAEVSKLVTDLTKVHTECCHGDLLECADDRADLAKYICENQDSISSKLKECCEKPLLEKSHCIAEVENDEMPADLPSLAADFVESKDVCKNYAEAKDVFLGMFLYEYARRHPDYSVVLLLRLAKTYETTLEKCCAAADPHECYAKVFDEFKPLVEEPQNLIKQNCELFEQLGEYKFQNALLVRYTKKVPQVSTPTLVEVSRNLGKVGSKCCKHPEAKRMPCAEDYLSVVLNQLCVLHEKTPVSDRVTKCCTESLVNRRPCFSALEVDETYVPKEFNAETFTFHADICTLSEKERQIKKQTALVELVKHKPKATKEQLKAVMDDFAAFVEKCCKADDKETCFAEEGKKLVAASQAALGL

Consider `O=C(CN1CCN(c2ncccn2)CC1)c1cnc2ncccn12`, for which the 50% inhibitory concentration (IC50) worked out at 14.7 µM in the data set with MCF7, 65.8 µM in the data set with COLO 205, 24.4 µM with A549 [1] and 0.45 µM at Pyruvate kinase PKM.
With `Cc1c(C(=O)N2CCC2)cnn1C(=O)Nc1ccn2cc(-c3ccccc3)nc2n1`, the half-maximal inhibitory concentration (IC50) in data set [2] came out at 0.003 µM.
With `O=C(c1ccccc1)c1cnc2ncccn12`, the MIC stood at 0.125 µg/mL (≈ 0.56 µM) with Candida albicans [3]; 0.062 µg/mL (≈ 0.278 µM) in the data set on Candida dubliniensis; 0.062 µg/mL (≈ 0.278 µM) in data set [4]; 0.125 µg/mL (≈ 0.56 µM) in the data set with Kluyveromyces marxianus [5]; 0.062 µg/mL (≈ 0.278 µM) in the data set with Nakaseomyces glabratus; 0.5 µg/mL (≈ 2.24 µM) with Pichia kudriavzevii. For the same compound, the MIC in the data set with Candida tropicalis amounted to 0.5 µg/mL (≈ 2.24 µM).
In the case of `N#Cc1ccccc1N1CCN(CC(=O)c2cnc3ncccn23)CC1`, the IC50 turned out to be 11 µM with MCF7, 64.8 µM in the data set on COLO 205, 27.9 µM with A549 [1] and 1.2 µM at Pyruvate kinase PKM.
Take `CC(=O)NC1(Cc2c[nH]c3ccc(Br)cc23)C(=O)N=C2N=CC=CN21` (stereo not drawn): the IC50 with A549 [6] is 1.4 µM.
On to `CCOC(=O)c1ccc(-c2cn3cccnc3n2)cc1`, for which, at Albumin, 100 µM produced 54.2% inhibition.
In the case of `CS(=O)(=O)C1=CNC(=O)N2CCN=C12`, the EC50 with BK polyomavirus stood at 22.4 µM. The CC50 in data set [7] was more than 150 µM.
The compound `Cc1c(C(=O)N2CCC2)cnn1CC(=O)Nc1ccn2cc(-c3ccccc3)nc2n1` had an IC50 in data set [2] of 0.004 µM.
Turning to `Cc1c(C(=O)N2CC=CC2)cnn1C(=O)Nc1ccn2cc(-c3ccccc3)nc2n1`, half-maximal inhibition in [2] (IC50) required 0.009 µM.
For `COc1ccc(C(=O)N2CCN(CC(=O)c3cnc4ncccn34)CC2)cc1`, the IC50 in the data set with MCF7 came out at 11.6 µM; in the data set with COLO 205, 44.9 µM; in the data set with A549 [1], 24 µM; on Pyruvate kinase PKM it was 0.314 µM.
In the same order, the values of `Cc1ccc(N2CCN(CC(=O)c3cnc4ncccn34)CC2)cc1` are 14.5 µM, 57.8 µM, 27.1 µM and 0.06 µM.
For the compound `Nc1nc(N)nc(-c2nc(Cc3ccccc3F)c3ncccn23)n1`, in the data set on Aorta, the IC50 was found to be 0.215 µM.
Regarding `O=C(CN1CCN(c2ccco2)CC1)c1cnc2ncccn12`, the IC50 was determined as 10.9 µM in the data set with MCF7, 61 µM in the data set on COLO 205, 19.4 µM with A549 [1] and 0.31 µM on Pyruvate kinase PKM.
Turning to `O=C(O)c1ccccc1Nc1c(Cl)cccc1Cl`, the inhibition at 100 µM on Albumin stood at 84.7%.
As to `O=C(CN1CCN(C(=O)c2ccc(Cl)cc2)CC1)c1cnc2ncccn12`, the IC50 is 11.8 µM in the data set with MCF7, 28 µM in the data set on COLO 205, 25.3 µM in the data set on A549 [1] and 1.86 µM at Pyruvate kinase PKM.
In the case of `O=c1[nH]cc(-c2ccc(-c3ccccc3)cc2)c2nccn12`, the IC50 with CCRF-CEM was found to be 8.59 µM; in the data set with K562, 15.2 µM; with A549 [8], 10.1 µM; with CEM-DNR, 2.84 µM.
In the case of `CC(=O)NC1(Cc2ccc(N)cc2)C(=O)N=C2N=CC=CN21` (stereo not drawn), the IC50 in the data set with A549 [6] is 3.2 µM.
Turning to `Cc1ccc(C(=O)c2cnc3ncccn23)cc1`, the minimum inhibitory concentration (MIC) with Candida albicans [3] is 0.12 µg/mL (≈ 0.506 µM); with Candida dubliniensis, 0.25 µg/mL (≈ 1.05 µM); in data set [4], 0.062 µg/mL (≈ 0.261 µM); in the data set on Kluyveromyces marxianus [5], 0.5 µg/mL (≈ 2.11 µM); in the data set with Nakaseomyces glabratus, 0.062 µg/mL (≈ 0.261 µM); in the data set with Pichia kudriavzevii, 0.5 µg/mL (≈ 2.11 µM). Further, the MIC with Candida tropicalis came out at 0.25 µg/mL (≈ 1.05 µM).
As for `C[C@@H]1[C@H](O)[C@@H](C)/C=C/C=C/C=C/C=C/C=C/C=C/C=C/[C@H](O[C@@H]2O[C@H](C)[C@@H](O)[C@H](N)[C@@H]2O)C[C@@H]2O[C@](O)(C[C@@H](O)C[C@@H](O)[C@H](O)CC[C@@H](O)C[C@@H](O)CC(=O)O[C@H]1C)C[C@H](O)[C@H]2C(=O)O` [AMPHOTERICIN B], the MIC in the data set with Candida albicans [9] was found to be 0.78 µg/mL (≈ 0.844 µM); in the data set with Kluyveromyces marxianus [10] it was 12.5 µg/mL (≈ 13.5 µM); with Cryptococcus neoformans it was 0.2 µg/mL (≈ 0.216 µM); in the data set on Aspergillus niger, 0.39 µg/mL (≈ 0.422 µM); in the data set with Neurospora crassa, 0.39 µg/mL (≈ 0.422 µM).
In the case of `Nc1ccn(C[C@@H](CO)OCP(=O)(O)O)c(=O)n1` [CIDOFOVIR ANHYDROUS], the concentration for a half-maximal effect (EC50) in the data set on BK polyomavirus was determined as 0.24 µM. The CC50 in [7] is more than 150 µM.
Take `CC(C)(C)c1nc(-c2cccc(NS(=O)(=O)c3c(F)cccc3F)c2F)c(-c2ccnc(N)n2)s1` [DABRAFENIB]: the IC50 with A549 [6] came out at 0.003 µM.
Take `OC(Cn1cncn1)(Cn1cncn1)c1ccc(F)cc1F` [FLUCONAZOLE]: the minimum inhibitory concentration (MIC) in the data set with Candida albicans [3] was 0.5 µg/mL (≈ 1.63 µM); in the data set on Candida dubliniensis it was 0.5 µg/mL (≈ 1.63 µM); in [4], 1 µg/mL (≈ 3.27 µM); in the data set with Kluyveromyces marxianus [5], 1 µg/mL (≈ 3.27 µM); with Pichia kudriavzevii it was 4 µg/mL (≈ 13.1 µM); in the data set on Candida tropicalis, 1 µg/mL (≈ 3.27 µM).
As for `CC(=O)N1CCN(c2ccc(OCC3COC(Cn4ccnc4)(c4ccc(Cl)cc4Cl)O3)cc2)CC1` (stereo not drawn) [KETOCONAZOLE], the MIC in the data set on Candida albicans [3] worked out at 8 µg/mL (≈ 15.1 µM); with Candida dubliniensis it was 2 µg/mL (≈ 3.76 µM); in [4], 0.125 µg/mL (≈ 0.235 µM); in the data set with Kluyveromyces marxianus [5], 0.25 µg/mL (≈ 0.47 µM); with Nakaseomyces glabratus, 0.25 µg/mL (≈ 0.47 µM); in the data set on Pichia kudriavzevii it was 1 µg/mL (≈ 1.88 µM). The minimal inhibitory concentration (MIC) in the data set on Candida tropicalis is 2 µg/mL (≈ 3.76 µM).

As usually defined, the IC50 is the concentration that inhibits the measured activity by half. The MIC is the smallest concentration in the dilution series that meets the test's criterion for growth inhibition. What is called inhibition is the relative decrease from the control value, in per cent. Lower therefore signals a response near the control. For orientation: EC50 means the concentration that produces a half-maximal response. The term CC50 denotes the concentration that lowers cell viability or growth by half.
